The nature of the assay: HCV RNA replicon replication inhibition, late-stage follow-up, HCV NS3 helicase inhibitor project, cell-based, luminescence (AID 463235). As to conditions: HCV replicon cells, RNA blot hybridization, 3 days; for IC90: measured here: 90% replicon inhibition. In general terms: In antiviral work, replicon cells carry a viral genome segment that copies itself.

Structures are written as SMILES. Activity calls are given as the source filed them. The rule behind the calls is not given here.

Broadly, the IC50 is the concentration needed to halve the response being measured. The term IC90 denotes the point of the concentration-response curve where the effect stands at 90%. Read a high IC90 as a need for much substance.

On to `CCCCCOc1ccc(C2C(C(=O)c3ccc(C)o3)=C(O)C(=O)N2c2cc(C)on2)cc1` (centres undefined), for which the IC50 is > 10 µM (inactive) and the concentration for an effect of 90% (IC90) is greater than 10 µM.
On the same counts, the results for `Cc1cc(N2C(=O)C(O)=C(C(=O)c3ccc(C)o3)C2c2ccc(OCc3ccccc3)cc2)no1` (centres undefined) are > 10 µM (inactive) and greater than 10 µM.
Turning to `Cc1ccc(C(=O)C2=C(O)C(=O)N(Cc3ccco3)C2c2cccc(Cl)c2)o1` (centres undefined), the IC50 is > 10 µM (inactive) and the IC90 is greater than 10 µM.
For `COc1cc(C2C(C(=O)c3ccc(C)o3)=C(O)C(=O)N2c2cc(C)on2)ccc1OCc1ccccc1` (centres undefined), the IC50 is > 10 µM (inactive) and the 90% effect concentration (IC90) was greater than 10 µM.
In the same order, the values of `COc1ccc(C=NNC(=O)c2cc(O)c(O)c(O)c2)cc1COc1ccc(C(=O)OCC(C)C)cc1` are > 10 µM (inactive) and greater than 10 µM.
On the same counts, the results for `COc1cccc(-n2c(SCc3cc(=O)oc4cc(O)c(O)cc34)nc3ccccc3c2=O)c1` are > 10 µM (inactive) and greater than 10 µM.
In the same order, the values of `CCOc1cccc(C2C(C(=O)c3ccc(C)o3)=C(O)C(=O)N2Cc2ccccc2)c1` (centres undefined) are > 10 µM (inactive) and greater than 10 µM.

For the origin of these results see PubChem BioAssay AID463235 (The Scripps Research Institute Molecular Screening Center, 2010).
